The subject of experiment [1] is Mouse bone marrow derived macrophages. Kind of experiment: Superoxide anion generation in macrophages (lucigenin chemoluminescent assay). Type of experiment: cell-based. Particulars: 1 or 3 μg/ml, 24 h; Zymosan-initiated; versus untreated controls (FIG. 2). The protocol: Mouse bone marrow derived macrophages were incubated for 24 h at 37° C. in MEM+10% FCS to a concentration of 10^6 cells/ml in the absence or presence of ELPs IES01 and IEC01 at the concentration of 1 or 3 μg/ml. The O2^− free radicals were measured in a chemoluminescent assay that detects the photons generated by the reaction of superoxid anions with lucigenin. The liberated photons are counted with a luminometer Microlumat LB96P, Berthold, Wildbad, Germany. Collected macrophages are resuspended in 0.2 ml at a concentration of 10^6/ml in HEPES buffered medium containing 540 μg/ml lucigenin. Superoxid production is initiated by adding 50 mg of Zymosan and the emission of photons is measured with a luminometer for 2 h.

For another experiment, the system named is HLA. Particulars: human neutrophils, Medium = 100. As to the method: Isolation and treatment of neutrophils. Human neutrophils were obtained from fresh peripheral blood by dextran sedimentation and centrifugation on Ficoll-Hypaque followed by hypotonic lysis of residual erythrocytes. […] Cells were resuspended at 3×10^6 neutrophils/ml in HEPES/glucose buffer (150 mM NaCl, 5 mM KCl, 10 mM HEPES, 1.2 mM MgCl2, 1.3 mM CaCl2, 5.5 mM glucose, pH 7.5), and incubated in the absence or presence of distinct agents at 37° C. for the times indicated in the respective legends to figures. Subsequently, cells were pelleted by centrifugation and saved to determine the content of different cell surface antigens by flow cytometry.
Monoclonal antibodies. The following monoclonal antibodies were used: TS1/11 anti-CD11a, Bear-1 anti-CD11b, TP1/36.1 anti-CD43, HP2/9 anti-CD44, Leu-8 anti-L-selectin, and W6/32, specific for a monomorphic determinant on HLA-A, B molecules. P3X63 myeloma culture supernatant was used as a negative control. The antibodies are commercially available.
Immunofluorescence flow cytometry. Immunofluorescence flow cytometry analysis was performed in a FACStar-Plus and a FACScan flow cytometers (Becton-Dickinson). Neutrophils were incubated at 4° C. with the corresponding monoclonal antibody followed by washing and labelling with a fluorescein isothiocyanate (FITC)-labelled-goat anti-mouse IgG antibody (DAKO, Glostrup, Denmark). Mean fluorescence intensity (MFI) in linear scale was obtained from at least 7000 cells in each sample, and the fluorescence produced by the myeloma P3X63 supernatant was considered as background. Results were expressed as relative MFI (rMFI), such that
(§1) rMFI=(MFIagent×100)/MFImedium
(§2) Background fluorescence was substracted from all values.

The test system of experiment [2] is bentonite-induced skin edema in mice. Description: Bentonite-induced skin edema in mice. Particulars: for Area (area below the curve of difference between right and left pad diameter) / Inhibition of the inflammatory process: mice; for Inhibition of the inflammatory process: versus inflamed control. Type of experiment: in vivo. The text has this:
Mice were individually identified with an ear code and were kept in groups of 6 per cage (Makrolon: 47.6×22.7×14.5 cm). Each cage was individually labelled with the n^o. of the study, type of treatment, doses used and route of administration, as well as the name of the director of the study, number and gender of contained animals, date of arrival and of the beginning of the experiment.
The animals had free access to mouse standard chow (UAR A04C; Usine d'Alimentation Rationelle, 91360-Villemoisson sur Orge, Francia; lot nos. 70520 and 70722). Drinking water access was ad libitum. The water, supplied by the Compañia de Aguas de Sabadell, S.A., is routinely analysed for the presence of possible contaminants. The temperature in the animal rooms was 22±3° C., with sporadic peaks of 26° C.; air humidity was 60±10%, with sporadic peaks of 80%. Daily light (between 7:00 h and 19:00 h) and dark phases were installed automatically.
Upon arrival, all animals were allowed to rest in the facilities for 8 days before use in the experiment. Table 2 indicates the six random groups of 10 mice each were set for experimentation.
The diameter of both hind pads of all mice was measured at day 0 and set as the basal value. Edema was then induced by injecting s.c. 13.3 mg/ml bentonite in 0.03 ml PBS into the right food pad. The corresponding mice were given daily the different compounds orally for 21 days. The inflamed control group was given 0.2 ml PBS only. The diameter of hind pads, as well as the body weight, was then measured every other day.
In each experimental group the average value, the standard deviation (SD) and the standard error was determined for the two parameters studied (hind pad diameter and body weight). The factor variance analysis (FVA) was used to compare the values obtained in the different groups. Where statistically significant differences were observed, the Duncan-Kramer test for a p<0.05 was applied.
The area below the curves corresponding to the diameters of the right and left pads was calculated and the evolution of the difference between them were plotted (FIGS. 7 and 8). The anti-inflammatory capacity of the different substances was evaluated as the extent of inhibition of the inflammatory process that was calculated with the formula [formula]
where C is the area below the inflammed control group and T the area below the different treatment groups.

The subject of experiment [3] is PGE2 production in murine fibroblasts 3T3. Description: PGE2 measurement in 3T3 cells (enzyme immunoassay). Type of experiment: cell-based, Mouse. As to the method: Cell culture. Human promyelocytic HL-60 cells and promonocytic U937 cells were grown in RPMI-1640 culture medium supplemented with 10% (v/v) heat-inactivated fetal calf serum, 2 mM L-glutamine, 100 units/ml penicillin and 24 μg/ml gentamicin. Mouse 3T3 fibroblasts were grown in Dulbecco's modified Eagle's medium (DMEM) supplemented with 10% (v/v) heat-inactivated fetal calf serum, 2 mM L-glutamine, 100 units/ml penicillin and 24 μg/ml gentamicin. Cells were incubated at 37° C. in a humidified atmosphere at 5% CO2 and 95% air.
Prostaglandin E2 (PGE2) measurement. 3T3 cells (1.5×10^5 in 100 μl in complete DMEM culture medium) were incubated overnight at 37° C. (5% CO2) in 96-well microtitre plates (tissue-culture grade). Then, the distinct agents were added in 100 μl complete DMEM culture medium for 20 min at 37° C. After washing thoroughly the cells with PBS, cells were lysed and intracellular PGE2 was measured using an enzyme immunoassay kit (Amersham Pharmacia Biotech, Buckinghamshire, UK) following the manufacturer's instructions. Data obtained in duplicate measurements were converted into actual amounts of PGE2 using a calibration curve run in parallel with defined amounts of PGE2.

The next experiment concerns CD11a. Kind of experiment: Cell surface expression of CD11a in human neutrophils (immunofluorescence flow cytometry). Particulars: Medium = 100. The format is cell-based.
Excerpt: Isolation and treatment of neutrophils.
Monoclonal antibodies. […] The antibodies are commercially available.
Immunofluorescence flow cytometry. […] Results were expressed as relative MFI (rMFI), such that
as §1, §2

[4] abbreviates: 2.5 mg/kg orally daily for 21 days.
[5] abbreviates: 5 mg/kg orally daily for 21 days.

Where two headings read alike, the source gives them in different places.

Consider `CCCCCCCCCCCCCCCCCCOCC(COP(=O)([O-])OCC[N+](C)(C)C)OC` (stereo not drawn) [IEC01, Edelfosine], for which the “amount of O2− free radicals produced by macrophages (inhibition, in words)” value in experiment [1] is listed as “higher”. Further, the “HLA cell surface expression (rMFI)” value in the experiment with HLA (10 ng/ml) was found to be 101 ± 5; with HLA (100 ng/ml), 100 ± 4; in the experiment with HLA (500 ng/ml), 99 ± 5; in the experiment with HLA (1 μg/ml) it was 102 ± 6; in the experiment with HLA (5 μg/ml) it was 101 ± 5. Besides, the “times more efficient in inhibiting inflammation than indomethacin, at the molecular level” value in experiment [2] (2.5 mg/kg versus indomethacin 2 mg/kg, taking molecular weights into account) worked out at 2 times. The results for the “Area (area below the curve of difference between right and left pad diameter)” value in experiment [2] (setting [4]) and in experiment [2] (setting [5]) were 5.9 ± 0.45 A.U and 7.0 ± 1.34 A.U, respectively. Further, the “Inhibition of the inflammatory process” value in experiment [2] (setting [4]) came to 23.5%; in experiment [2] (setting [5]) it was 9.7%. In experiment [3] (3T3 cells, 10 μM, 20 min at 37° C., Control 112 ± 21), the “pg PGE2 (intracellular)” value is given as 148 ± 22 pg. The “effect on PGE2 production (in words)” value in experiment [3] (3T3 fibroblasts, ionomycin-induced PGE2) is reported as “no significant inhibition”. For the same compound, the “CD11a cell surface expression (rMFI)” value is on record as 99 ± 3 in the experiment with CD11a (10 ng/ml); 102 ± 5 with CD11a (100 ng/ml); 97 ± 8 in the experiment on CD11a (500 ng/ml); 101 ± 6 with CD11a (1 μg/ml); 96 ± 5 in the experiment on CD11a (5 μg/ml).

The values are drawn from patent US6583127B1, “Use of etherlysophospholipids as antiinflammatory agents” (Inkeysa. SA, priority 1998, dated 2003).
